From patent publication US9458095B2, “Oligo-benzamide compounds and their use in treating cancers” (The Board of Regents of the University of Texas System, priority 2011, dated 2016) come the findings set out here.

What all share (format): cell-based
For test [1], the system named is WxxLF motif on AR. The experiment in a line: Gal4-3WxxLF and AR-Gal4 (hARGAL4/PSAenhGAL4-luc) luciferase reporter assays. To be noted: 100 nM peptidomimetic, 48 h, absence of androgens. The method, then:
FIGS. 1A-D. Oligobenzamide control of C4-2 cell proliferation. (FIG. 1A) Chemical structure of T6. (FIG. 1B) C4-2 cells were transiently transfected with Gal4-3WxxLF promoter or (FIG. 1C) with synthetic hARGAL4 and the PSAenhGAL4-luc reporter. Cells were maintained for 48 h in the absence of androgens and with either 100 nM of peptidomimetic or volume equivalent of vehicle (DMSO) control and luciferase activity measured. (FIG. 1D) Peptidomimetics knocked down ligand independent proliferation in C4-2 cells
Ligand independent activation involves the WxxLF motif, whose tertiary structure has not been crystallographically resolved. Indeed, binding partners of AR through this WxxLF motif have not been determined. […] Based on this model, the inventors designed three peptidomimetics T6, T21 and T26 to mimic the ^435WxxLF^439 motif on AR and to target PPIs through this domain (FIG. 1A). The screening strategy involved the use of synthetic Gal4-3WxxLF (Gal4 reporter driven by 3 copies of the WxxLF motif) (FIG. 1B) and AR-Gal4 constructs (wt AR with its DNA binding domain replaced by Gal4 DNA binding domain) (from Dr. Dehm, U. Minnesota) (FIG. 1C) […]. T21, T26, or T6 (but not the control T6R) knocked down the basal ligand independent transcription from this WxxLF driven promoters. Further, these peptidomimetics abrogated ligand independent proliferation of C4-2 cells (FIG. 1D).
A general note: In a reporter assay the amount or activity of a reporter protein is the signal.

In test [2] the target is T1, ARwt (Homo sapiens, UniProt P10275).
T1 construct: expressed in transfected cells; host or cells: PC-3 cells (A3); M12 cells (A8)
T1 sequence (P10275 1-920): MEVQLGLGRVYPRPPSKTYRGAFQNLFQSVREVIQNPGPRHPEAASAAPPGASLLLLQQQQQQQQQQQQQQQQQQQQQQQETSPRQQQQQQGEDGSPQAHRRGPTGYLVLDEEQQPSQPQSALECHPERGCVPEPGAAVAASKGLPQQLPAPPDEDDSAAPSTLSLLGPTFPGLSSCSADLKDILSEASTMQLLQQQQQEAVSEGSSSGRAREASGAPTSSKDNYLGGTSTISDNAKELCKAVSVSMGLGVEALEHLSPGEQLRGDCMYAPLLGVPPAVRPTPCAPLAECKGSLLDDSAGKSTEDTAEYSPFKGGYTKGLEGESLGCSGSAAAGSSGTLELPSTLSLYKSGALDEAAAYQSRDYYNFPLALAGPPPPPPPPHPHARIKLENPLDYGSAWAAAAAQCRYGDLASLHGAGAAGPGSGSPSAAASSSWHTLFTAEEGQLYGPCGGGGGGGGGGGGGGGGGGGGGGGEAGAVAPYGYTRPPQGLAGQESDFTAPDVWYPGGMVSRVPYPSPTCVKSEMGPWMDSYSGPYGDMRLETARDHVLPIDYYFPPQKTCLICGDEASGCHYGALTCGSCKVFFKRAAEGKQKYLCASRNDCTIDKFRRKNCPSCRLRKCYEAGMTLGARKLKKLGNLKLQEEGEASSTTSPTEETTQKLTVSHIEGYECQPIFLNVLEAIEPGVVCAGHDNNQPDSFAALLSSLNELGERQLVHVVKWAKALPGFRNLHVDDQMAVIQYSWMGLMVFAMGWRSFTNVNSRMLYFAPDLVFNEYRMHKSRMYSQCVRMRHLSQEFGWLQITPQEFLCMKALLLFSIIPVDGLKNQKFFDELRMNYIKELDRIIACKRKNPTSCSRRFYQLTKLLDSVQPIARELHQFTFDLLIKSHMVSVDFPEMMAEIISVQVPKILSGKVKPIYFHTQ
The test is described as follows: ARE-luciferase reporter in PC-3 cells expressing ARwt. Particulars: 1 nM DHT, 100 nM peptidomimetic, 48 h. The method, then: FIGS. 2A-D. Oligobenzamide control of PC3 cell proliferation. (FIG. 2A) Structure of AR deletion mutants with numbered exons (FIG. 2B) Effect of D2 and T6 on basal (AI) and AD transcription. PC-3 cells were transiently transfected with ARE-luciferase along with plasmids expressing ARwt (FIG. 2B), ARv7 (FIG. 2C) or ARΔ1 (FIG. 2D). Cells were maintained for 48 h either without (EtOH) or with (1 nM DHT) and in the presence of 100 nM of peptidomimetic or volume equivalent of vehicle (DMSO) control. Luciferase assay results are shown. Data is normalized to the basal level of expression with AR wt in PC3 cells.
Since the WxxLF motif is also present in the truncated forms of the androgen receptor, the inventors then evaluated the ability of the peptidomimetics to block ARv7-driven transcription from a minimal ARE luciferase reporter. […] These findings were confirmed with a synthetic AR with point mutations in the WxxLF motif (data not shown).

For test [3], the system named is ARE activity in CWR22v1 cells (ARwt and ARv7). The test is described as follows: ARE-luciferase reporter in CWR22v1 cells. As to the method:
FIG. 4. Effect of T6 on basal level of ARE expression in CWR22v1 cells. CWR22v1 cells were transiently transfected with ARE-luciferase. Cells were maintained for 48 h without (EtOH) and in the presence of 100 nM of peptidomimetic or volume equivalent of vehicle (DMSO) control or 10 μM of casodex or MDV3100.

Entries after “also recorded” stand apart in the source; their conditions may differ.

`CC(C)COc1cc(C(N)=O)ccc1NC(=O)c1ccc(NC(=O)c2ccc([N+](=O)[O-])c(OCCc3ccc4ccccc4c3)c2)c(OCC(C)C)c1` [T6]: the “basal ligand independent transcription from WxxLF driven promoters” value in test [1] is on record as “knocked down”. Moreover, the “Ligand dependent transcription mediated by ARwt” value in test [2] is recorded as “able to suppress”. Also, the “basal transcription from minimal ARE luciferase in CWR22v1 cells (driven by ARv7)” value in test [3] (100 nM peptidomimetic, 48 h, without androgen (EtOH)) is given as “able to suppress; also recorded: abrogated”. Besides, the “DHT-induced transcription from minimal ARE luciferase in CWR22v1 cells” value in test [3] (DHT) is “able to suppress”.
